According to PubChem BioAssay (NCI):
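Tested at 5 concentrations; 48 h exposure; 96-well plates; endpoints linearly interpolated, else capped at highest concentration. GI50 is the concentration that inhibits growth by half. TGI marks complete inhibition of growth.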

Tests used:
Assay in all cases: DTP human tumour cell line panel, 48 h
786-0 renal = system: 786-0 renal
A498 renal = system: A498 renal
A549 NSCLC = system: A549 NSCLC
ACHN renal = system: ACHN renal
BT-549 breast = system: BT-549 breast
CAKI-1 renal = system: CAKI-1 renal
COLO 205 colon = system: COLO 205 colon
DU-145 prostate = system: DU-145 prostate
EKVX NSCLC = system: EKVX NSCLC
HCT-116 colon = system: HCT-116 colon
HCT-15 colon = system: HCT-15 colon
HL-60(TB) leukemia = system: HL-60(TB) leukemia
HOP-62 NSCLC = system: HOP-62 NSCLC
HOP-92 NSCLC = system: HOP-92 NSCLC
HS 578T breast = system: HS 578T breast
HT29 colon = system: HT29 colon
IGROV1 ovarian = system: IGROV1 ovarian
K-562 leukemia = system: K-562 leukemia
KM12 colon = system: KM12 colon
M14 melanoma = system: M14 melanoma
MALME-3M melanoma = system: MALME-3M melanoma
MCF7 breast = system: MCF7 breast
MDA-MB-231 breast = system: MDA-MB-231 breast
MDA-MB-435 = system: MDA-MB-435
MOLT-4 leukemia = system: MOLT-4 leukemia
NCI-H226 lung = system: NCI-H226 lung
NCI-H23 lung = system: NCI-H23 lung
NCI-H460 lung = system: NCI-H460 lung
NCI-H522 lung = system: NCI-H522 lung
NCI/ADR-RES ovarian = system: NCI/ADR-RES ovarian
OVCAR-3 ovarian = system: OVCAR-3 ovarian
OVCAR-4 ovarian = system: OVCAR-4 ovarian
OVCAR-5 ovarian = system: OVCAR-5 ovarian
OVCAR-8 ovarian = system: OVCAR-8 ovarian
PC-3 prostate = system: PC-3 prostate
RPMI-8226 leukemia = system: RPMI-8226 leukemia
RXF 393 renal = system: RXF 393 renal
SF-295 CNS = system: SF-295 CNS
SF-539 CNS = system: SF-539 CNS
SK-MEL-2 melanoma = system: SK-MEL-2 melanoma
SK-MEL-28 melanoma = system: SK-MEL-28 melanoma
SK-MEL-5 melanoma = system: SK-MEL-5 melanoma
SK-OV-3 ovarian = system: SK-OV-3 ovarian
SN12C renal = system: SN12C renal
SNB-19 CNS = system: SNB-19 CNS
SNB-75 CNS = system: SNB-75 CNS
SR leukemia = system: SR leukemia
SW-620 colon = system: SW-620 colon
T-47D breast = system: T-47D breast
TK-10 renal = system: TK-10 renal
U251 CNS = system: U251 CNS
UACC-257 melanoma = system: UACC-257 melanoma
UACC-62 melanoma = system: UACC-62 melanoma
UO-31 renal = system: UO-31 renal
CCRF-CEM leukemia = system: CCRF-CEM leukemia
LOX IMVI melanoma = system: LOX IMVI melanoma
SF-268 CNS = system: SF-268 CNS

COc1ccc(CNc2nc(NCc3ccc(OC)cc3)nc(N3CCOCC3)n2)cc1
TGI (786-0 renal): > 100 µM | TGI (A498 renal): 93.8 µM | TGI (A549 NSCLC): > 100 µM | TGI (ACHN renal): > 100 µM | TGI (BT-549 breast): > 100 µM | TGI (CAKI-1 renal): 6.9 µM | TGI (COLO 205 colon): > 100 µM | TGI (DU-145 prostate): > 100 µM | TGI (EKVX NSCLC): > 100 µM | TGI (HCT-116 colon): > 100 µM | TGI (HCT-15 colon): 6.21 µM | TGI (HL-60(TB) leukemia): 13.6 µM | TGI (HOP-62 NSCLC): > 100 µM | TGI (HOP-92 NSCLC): > 100 µM | TGI (HS 578T breast): > 100 µM | TGI (HT29 colon): 9.63 µM | TGI (IGROV1 ovarian): > 100 µM | TGI (K-562 leukemia): 26.2 µM | TGI (KM12 colon): 8.09 µM | TGI (M14 melanoma): > 100 µM | TGI (MALME-3M melanoma): 5.84 µM | TGI (MCF7 breast): > 100 µM | TGI (MDA-MB-231 breast): > 100 µM | TGI (MDA-MB-435): 4.66 µM | TGI (MOLT-4 leukemia): 10.9 µM | TGI (NCI-H226 lung): > 100 µM | TGI (NCI-H23 lung): 28.7 µM | TGI (NCI-H460 lung): > 100 µM | TGI (NCI-H522 lung): > 100 µM | TGI (NCI/ADR-RES ovarian): 13 µM | TGI (OVCAR-3 ovarian): 6.81 µM | TGI (OVCAR-4 ovarian): > 100 µM | TGI (OVCAR-5 ovarian): 41.6 µM | TGI (OVCAR-8 ovarian): > 100 µM | TGI (PC-3 prostate): > 100 µM | TGI (RPMI-8226 leukemia): 4.03 µM | TGI (RXF 393 renal): > 100 µM | TGI (SF-295 CNS): 8.98 µM | TGI (SF-539 CNS): 19.2 µM | TGI (SK-MEL-2 melanoma): > 100 µM | TGI (SK-MEL-28 melanoma): > 100 µM | TGI (SK-MEL-5 melanoma): 24.4 µM | TGI (SK-OV-3 ovarian): > 100 µM | TGI (SN12C renal): > 100 µM | TGI (SNB-19 CNS): > 100 µM | TGI (SNB-75 CNS): > 100 µM | TGI (SR leukemia): 4.92 µM | TGI (SW-620 colon): > 100 µM | TGI (T-47D breast): > 100 µM | TGI (TK-10 renal): 28.8 µM | TGI (U251 CNS): > 100 µM | TGI (UACC-257 melanoma): > 100 µM | TGI (UACC-62 melanoma): > 100 µM | TGI (UO-31 renal): > 100 µM

Oc1ccc(Br)cc1Sc1cc(Br)ccc1O
GI50 (786-0 renal): 18.6 µM | TGI (786-0 renal): 35.4 µM | GI50 (A498 renal): 15.5 µM | TGI (A498 renal): 31.1 µM | GI50 (A549 NSCLC): 5.09 µM | TGI (A549 NSCLC): 22 µM | GI50 (ACHN renal): 6.4 µM | TGI (ACHN renal): 20.8 µM | GI50 (BT-549 breast): 8.46 µM | TGI (BT-549 breast): 23 µM | GI50 (CAKI-1 renal): 18.7 µM | TGI (CAKI-1 renal): 45.5 µM | GI50 (CCRF-CEM leukemia): 5.25 µM | TGI (CCRF-CEM leukemia): 24.8 µM | GI50 (COLO 205 colon): 17.8 µM | TGI (COLO 205 colon): 34.9 µM | GI50 (DU-145 prostate): 11.7 µM | TGI (DU-145 prostate): 28.4 µM | GI50 (HCT-116 colon): 6 µM | TGI (HCT-116 colon): 24.3 µM | GI50 (HCT-15 colon): 5.93 µM | TGI (HCT-15 colon): 22 µM | GI50 (HL-60(TB) leukemia): 4.98 µM | TGI (HL-60(TB) leukemia): 25 µM | GI50 (HOP-62 NSCLC): 13.6 µM | TGI (HOP-62 NSCLC): 30.2 µM | GI50 (HS 578T breast): 4.28 µM | TGI (HS 578T breast): 25.8 µM | GI50 (HT29 colon): 19 µM | TGI (HT29 colon): 34.1 µM | GI50 (IGROV1 ovarian): 15.7 µM | TGI (IGROV1 ovarian): 36.3 µM | GI50 (K-562 leukemia): 5.12 µM | TGI (K-562 leukemia): 32 µM | GI50 (KM12 colon): 17 µM | TGI (KM12 colon): 33.3 µM | GI50 (LOX IMVI melanoma): 4.89 µM | TGI (LOX IMVI melanoma): 17.6 µM | GI50 (M14 melanoma): 10.7 µM | TGI (M14 melanoma): 27.9 µM | GI50 (MCF7 breast): 11.2 µM | TGI (MCF7 breast): 30 µM | GI50 (MDA-MB-231 breast): 6.58 µM | TGI (MDA-MB-231 breast): 23.2 µM | GI50 (MDA-MB-435): 5.23 µM | TGI (MDA-MB-435): 19.8 µM | GI50 (MOLT-4 leukemia): 7.37 µM | TGI (MOLT-4 leukemia): 38.4 µM | GI50 (NCI-H226 lung): 18.1 µM | TGI (NCI-H226 lung): 41.9 µM | GI50 (NCI-H23 lung): 3.14 µM | TGI (NCI-H23 lung): 11.8 µM | GI50 (NCI-H460 lung): 5.1 µM | TGI (NCI-H460 lung): 20 µM | GI50 (NCI-H522 lung): 2.69 µM | TGI (NCI-H522 lung): 8.46 µM | GI50 (NCI/ADR-RES ovarian): 5.06 µM | TGI (NCI/ADR-RES ovarian): 24.3 µM | GI50 (OVCAR-3 ovarian): 4.98 µM | TGI (OVCAR-3 ovarian): 18 µM | GI50 (OVCAR-4 ovarian): 4.72 µM | TGI (OVCAR-4 ovarian): 18.1 µM | GI50 (OVCAR-5 ovarian): 15.8 µM | TGI (OVCAR-5 ovarian): 32.1 µM | GI50 (OVCAR-8 ovarian): 5.89 µM | TGI (OVCAR-8 ovarian): 24.7 µM | GI50 (PC-3 prostate): 10.6 µM | TGI (PC-3 prostate): 29.4 µM | GI50 (RPMI-8226 leukemia): 3.18 µM | TGI (RPMI-8226 leukemia): 15.6 µM | GI50 (SF-268 CNS): 7.68 µM | TGI (SF-268 CNS): 26.7 µM | GI50 (SF-295 CNS): 14.4 µM | TGI (SF-295 CNS): 33.5 µM | GI50 (SF-539 CNS): 4.66 µM | TGI (SF-539 CNS): 18.7 µM | GI50 (SK-MEL-2 melanoma): 5.62 µM | TGI (SK-MEL-2 melanoma): 17.7 µM | GI50 (SK-MEL-28 melanoma): 4.78 µM | TGI (SK-MEL-28 melanoma): 16.6 µM | GI50 (SK-MEL-5 melanoma): 3.16 µM | TGI (SK-MEL-5 melanoma): 11.6 µM | GI50 (SK-OV-3 ovarian): 14.9 µM | TGI (SK-OV-3 ovarian): 29.7 µM | GI50 (SN12C renal): 3.89 µM | TGI (SN12C renal): 16.8 µM | GI50 (SNB-19 CNS): 4.88 µM | TGI (SNB-19 CNS): 25.2 µM | GI50 (SNB-75 CNS): 4.29 µM | TGI (SNB-75 CNS): 19.7 µM | GI50 (SR leukemia): 5.39 µM | TGI (SR leukemia): 25.3 µM | GI50 (SW-620 colon): 9.29 µM | TGI (SW-620 colon): 25.3 µM | GI50 (T-47D breast): 4.36 µM | TGI (T-47D breast): 17.7 µM | GI50 (U251 CNS): 4.42 µM | TGI (U251 CNS): 18.4 µM | GI50 (UACC-257 melanoma): 5.2 µM | TGI (UACC-257 melanoma): 17.7 µM | GI50 (UO-31 renal): 5 µM | TGI (UO-31 renal): 19.6 µM
